Measured values: US11047848B2, “Cellular discovery platform for neurodegenerative diseases” (Whitehead Institute for Biomedical Research, priority 2013, dated 2021)

Tested on: primary cortical cultures
Experiment: Optimization of the NO sensor FL2 in rat primary cortical cultures
Format: cell-based
Settings: 500 μM DETA-NONOate for 30 min, DIV 14-21; FIG. 20
Protocol: FIG. 20. Optimization of the NO sensor, FL2, using an NO donor, DETA-NONOate. FL2 dye was loaded after exposing primary cortical cultures (DIV 14-21) to 500 μM DETA-NONOate for 30 min. […] Control cultures exposed to dye without an NO donor are shown in the upper panel. A single representative experiment is shown.
Embryos were harvested by cesarean section from anesthetized pregnant Sprague-Dawley rats at embryonic day 18. Cerebral cortices were isolated and dissociated with Accumax (Innovative Cell Technologies, Inc) digestion for 20 min at 37° C. and triutration with Pasteur pipette. Poly-ornithine and lamine-coated 96 well plates or 8 well-chambered coverglass (Lab-Tek; 70378-81) were seeded with 4×10^4 or 8×10^4 cells respectively in neurobasal medium (Life Technologies) supplemented with B27 (Life Technologies), 0.5 mM glutamine, 25 μM β-mercaptoethanol, penicillin (100 IU/ml) and streptomycin (100 μg/ml). One third of the medium was changed every 3 to 4 days. As a surrogate marker of cell viability, cellular ATP content was measured using the ViaLight Plus kit (Lonza).
The FL2 sensor used in this study was a non-acidified and non-esterified version of the FL2-related sensors that have been previously published^23,24,53,55. A working 1 mM solution of FL2 (batch SJL #1768) in DMSO (Sigma 276855) was stable for at least 3 months at −20° C. […]

NCCN(CCN)/[N+]([O-])=N/O [DETA-NONOate]
FL2 response (NO signal): robust FL2 response
